Read-outs that look alike come from different tables or passages of the source.

The target in one assay is T1, EGFR (C797S L858R) (Homo sapiens, UniProt P00533, C797S/L858R).
T1 construct: purchased signalchem
The experiment in a line: Inhibition of EGFR (C797S L858R) biochemical enzymatic activity (HTRF). The conditions noted are these: EGFR L858-C797S, 1 mM ATP, 1 h, room temperature, read-out: IC50 (nM) @L858-C797S. In short, it runs like this: (§1)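 HTRF kinase assay: each EGFR enzyme phosphorylated 1 μM biotinylated TK substrate with 1 mM ATP in buffer containing 5 mM MgCl2, 1 mM MnCl2, 0.01% CHAPS, 1 mM DTT, 0.5% DMSO. After 1 h at room temperature, EDTA detection mix stopped the reaction. IC50 came from a four-parameter logistic fit of the 665/615 nm ratio.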

For the next assay, the target named is T2, EGFR L858R (Homo sapiens, UniProt P00533, L858R).
T2 construct: purchased Carna Bio
Briefly: Inhibition of EGFR L858R biochemical enzymatic activity (HTRF). To be noted: 1 mM ATP, 1 h, room temperature, read-out: IC50 (nM) @L858R. The method, boiled down: as §1
(In general: Time-resolved FRET reads energy transfer from a long-lived donor to a nearby acceptor.)

A further assay has as its target T3, EGFR wild type (Homo sapiens, UniProt P00533).
T3 construct: purchased Carna Bio
The experiment in a line: Inhibition of EGFR wild type biochemical enzymatic activity (HTRF). To be noted: EGFR WT, 1 mM ATP, 1 h, room temperature, read-out: IC50 (nM) @WT. In short, it runs like this: as §1

The target in a further assay is T4, EGFR Exon19Del (Homo sapiens, UniProt P00533, DEL746-750).
T4 construct: purchased Carna Bio
T4 sequence (P00533 with tags, fused parts or gaps DEL746-750 limits assumed): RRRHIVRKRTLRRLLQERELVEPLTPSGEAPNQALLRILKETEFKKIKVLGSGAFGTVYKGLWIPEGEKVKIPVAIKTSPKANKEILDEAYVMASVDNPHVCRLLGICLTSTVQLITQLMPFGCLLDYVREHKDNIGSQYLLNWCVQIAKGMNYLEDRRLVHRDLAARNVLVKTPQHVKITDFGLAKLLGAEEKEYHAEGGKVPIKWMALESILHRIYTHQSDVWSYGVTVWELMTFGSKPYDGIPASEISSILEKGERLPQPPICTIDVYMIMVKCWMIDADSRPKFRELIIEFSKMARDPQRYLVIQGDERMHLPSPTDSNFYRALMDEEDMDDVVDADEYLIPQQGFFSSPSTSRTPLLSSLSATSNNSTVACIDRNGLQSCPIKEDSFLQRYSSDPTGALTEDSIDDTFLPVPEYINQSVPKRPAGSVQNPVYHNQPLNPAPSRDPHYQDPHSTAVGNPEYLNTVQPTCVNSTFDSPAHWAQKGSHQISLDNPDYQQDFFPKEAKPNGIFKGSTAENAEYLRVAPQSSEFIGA
The experiment in a line: Inhibition of EGFR Exon19Del biochemical enzymatic activity (HTRF). The conditions noted are these: EGFR Del19, 1 mM ATP, 1 h, room temperature, read-out: IC50 @Del19. In short, it runs like this:
as §1

Assay [1] has as its target T5, EGFR[T790M/C797S/d746-750] (Homo sapiens, UniProt P00533, C797S/DEL746-750/T790M).
T5 construct: purchased Carna Bio
Briefly: Inhibition of EGFR[T790M/C797S/d746-750] biochemical enzymatic activity (HTRF). To be noted: EGFR T790M-C797S-Del19, 1 mM ATP, 1 h, room temperature, read-out: IC50 (nM) @T790M - C797S - Del19. The method, boiled down:
as §1

For the next assay, the target named is T6, EGFR L858R/T790M (Homo sapiens, UniProt P00533, L858R/T790M).
T6 construct: purchased Carna Bio
T6 sequence (P00533 25-1210 T790M/L858R): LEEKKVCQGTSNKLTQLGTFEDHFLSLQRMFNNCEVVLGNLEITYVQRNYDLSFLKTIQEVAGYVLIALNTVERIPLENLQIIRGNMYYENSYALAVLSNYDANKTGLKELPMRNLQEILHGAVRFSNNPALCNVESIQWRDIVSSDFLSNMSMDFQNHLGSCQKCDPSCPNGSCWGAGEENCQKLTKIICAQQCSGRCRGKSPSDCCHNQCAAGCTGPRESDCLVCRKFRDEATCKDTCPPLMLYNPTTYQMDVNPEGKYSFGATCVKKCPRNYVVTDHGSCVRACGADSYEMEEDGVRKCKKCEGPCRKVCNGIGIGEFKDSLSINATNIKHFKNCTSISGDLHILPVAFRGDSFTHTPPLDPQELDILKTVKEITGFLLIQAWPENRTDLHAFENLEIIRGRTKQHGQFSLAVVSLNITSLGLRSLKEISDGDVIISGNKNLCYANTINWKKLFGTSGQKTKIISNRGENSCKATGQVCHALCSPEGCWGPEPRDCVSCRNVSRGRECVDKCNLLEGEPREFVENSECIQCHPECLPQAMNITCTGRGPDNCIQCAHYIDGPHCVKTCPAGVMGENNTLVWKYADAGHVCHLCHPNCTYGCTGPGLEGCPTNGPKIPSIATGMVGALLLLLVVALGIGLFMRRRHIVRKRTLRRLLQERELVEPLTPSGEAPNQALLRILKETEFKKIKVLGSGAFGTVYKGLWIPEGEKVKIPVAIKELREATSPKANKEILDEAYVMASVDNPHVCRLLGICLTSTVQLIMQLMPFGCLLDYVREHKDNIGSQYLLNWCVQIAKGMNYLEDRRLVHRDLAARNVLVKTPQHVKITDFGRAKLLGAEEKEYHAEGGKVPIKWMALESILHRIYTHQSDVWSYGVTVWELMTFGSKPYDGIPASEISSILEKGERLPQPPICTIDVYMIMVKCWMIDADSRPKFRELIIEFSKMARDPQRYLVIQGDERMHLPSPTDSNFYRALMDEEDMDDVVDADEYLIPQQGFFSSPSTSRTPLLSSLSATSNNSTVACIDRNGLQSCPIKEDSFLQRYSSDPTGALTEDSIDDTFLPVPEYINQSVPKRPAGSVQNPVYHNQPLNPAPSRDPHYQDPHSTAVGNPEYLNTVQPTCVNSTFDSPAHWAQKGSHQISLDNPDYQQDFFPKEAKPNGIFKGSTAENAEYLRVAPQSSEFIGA
Briefly: Inhibition of EGFR L858R/T790M biochemical enzymatic activity (HTRF). To be noted: EGFR L858R-T790M, 1 mM ATP, 1 h, room temperature, read-out: IC50 (nM) @L858R-T790M. In short, it runs like this: as §1

The target of another assay is T7, EGFR Exon19Del/T790M (Homo sapiens, UniProt P00533, DEL746-750/T790M).
T7 construct: purchased Carna Bio
T7 sequence (P00533 with tags, fused parts or gaps DEL746-750/T790M limits assumed): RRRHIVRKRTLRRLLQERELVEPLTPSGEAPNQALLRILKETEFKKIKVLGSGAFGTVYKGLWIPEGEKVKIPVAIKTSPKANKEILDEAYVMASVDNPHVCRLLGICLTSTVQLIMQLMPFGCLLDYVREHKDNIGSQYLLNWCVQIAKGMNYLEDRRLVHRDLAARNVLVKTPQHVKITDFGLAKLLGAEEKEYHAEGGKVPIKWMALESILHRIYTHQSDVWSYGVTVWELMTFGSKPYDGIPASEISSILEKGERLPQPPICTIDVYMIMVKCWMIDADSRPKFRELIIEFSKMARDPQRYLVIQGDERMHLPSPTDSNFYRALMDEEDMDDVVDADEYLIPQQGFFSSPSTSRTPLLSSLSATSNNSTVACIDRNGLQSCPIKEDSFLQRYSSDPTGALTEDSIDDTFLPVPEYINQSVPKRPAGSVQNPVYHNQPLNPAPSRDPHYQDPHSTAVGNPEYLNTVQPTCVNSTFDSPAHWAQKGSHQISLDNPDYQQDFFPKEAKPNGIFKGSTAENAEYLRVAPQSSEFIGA
The experiment in a line: Inhibition of EGFR Exon19Del/T790M biochemical enzymatic activity (HTRF). The conditions noted are these: EGFR Del19-T790M, 1 mM ATP, 1 h, room temperature, read-out: IC50 (nM) @Del19-T790M. In short, it runs like this:
as §1

For another assay, the system named is PC-9. The experiment in a line: Cell proliferation assay, PC-9 cells (CellTiter-Glo, 72 hours). The conditions noted are these: Homo sapiens, PC-9, 72 h, PC9 cells, CellTiter-Glo, read-out: PC9 GI50. Format: cell-based. The method, boiled down: (§2)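 Ba/F3 cells carrying EGFR mutants (5000/well) or PC-9 cells (500/well) in RPMI1640 were dosed with compound series after overnight attachment and grown 72 h. Viability read by CellTiter-Glo, with day-0 counts subtracted; GI50 from curve fits of % proliferation versus DMSO control.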
(In general: In ATP-based viability assays light output follows the ATP content of the culture.)

The next assay concerns the target T8, EGFR[T790M/C797S/L858R] (Homo sapiens, UniProt P00533, C797S/L858R/T790M).
T8 construct: purchased Carna Bio
The experiment in a line: Inhibition of EGFR[T790M/C797S/L858R] biochemical enzymatic activity (HTRF). To be noted: EGFR T790M-C797S-L858R, 1 mM ATP, 1 h, room temperature, read-out: IC50 (nM) @T790M- C797S - L858R. In short, it runs like this: as §1

The test system of another assay is A-431. Briefly: Cell proliferation GI50, A-431 cells (Table 6). Format: cell-based. To be noted: Homo sapiens, A-431, A-431 cells.
Assay [2] concerns Ba/F3 cells expressing EGFR mutations. Briefly: Cell proliferation assay, Ba/F3 cells expressing EGFR mutations (CellTiter-Glo, 72 hours). Format: cell-based. The conditions noted are these: Mus musculus, BaF3, 72 h, CellTiter-Glo. In short, it runs like this:
as §2

The target of a further assay is T9, EGFR (d746-750 C797S) (Homo sapiens, UniProt P00533, C797S/DEL746-750).
T9 construct: purchased signalchem
T9 sequence (P00533 with tags, fused parts or gaps DEL746-750/C797S limits assumed): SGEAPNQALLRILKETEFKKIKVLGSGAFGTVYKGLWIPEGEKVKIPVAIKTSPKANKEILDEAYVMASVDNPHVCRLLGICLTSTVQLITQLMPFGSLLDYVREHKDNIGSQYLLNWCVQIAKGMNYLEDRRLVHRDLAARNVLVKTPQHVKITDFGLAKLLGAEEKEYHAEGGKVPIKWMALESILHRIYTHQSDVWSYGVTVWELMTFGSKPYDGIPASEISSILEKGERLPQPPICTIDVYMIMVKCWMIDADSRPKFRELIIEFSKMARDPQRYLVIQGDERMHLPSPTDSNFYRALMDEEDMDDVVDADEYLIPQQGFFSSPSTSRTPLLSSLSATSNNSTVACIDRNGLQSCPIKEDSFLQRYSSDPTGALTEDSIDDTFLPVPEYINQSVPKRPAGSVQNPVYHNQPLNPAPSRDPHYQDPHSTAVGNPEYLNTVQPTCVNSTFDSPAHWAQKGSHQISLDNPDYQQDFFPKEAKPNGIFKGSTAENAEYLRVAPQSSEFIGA
The experiment in a line: Inhibition of EGFR (d746-750 C797S) biochemical enzymatic activity (HTRF). To be noted: EGFR Del19-C797S, 1 mM ATP, 1 h, room temperature, read-out: IC50 (nM) @Del19-C797S. The method, boiled down: as §1

Setting [3] is: BaF3 cells, EGFR DEL19-C797S, read-out: DEL19-C797S/BaF3 GI50.
Setting [4] is: BaF3 cells, EGFR DEL19-T790-C797S, read-out: DEL19-T790-C797S/BaF3 GI50.
The mark [5] stands for this setting: BaF3 cells, EGFR L858R, read-out: L858R/BaF3 GI50.
Where [6] appears, read: BaF3 cells, EGFR L858R-C797S, read-out: L858R-C797S/BaF3 GI50.
Setting [7] is: BaF3 cells, EGFR L858R-T790-C797S, read-out: L858R-T790-C797S/BaF3 GI50.
Where [8] appears, read: BaF3 cells, EGFR L858R-T790M, read-out: L858R-T790M/BaF3 GI50.
The mark [9] stands for this setting: EGFR DEL19-T790M, read-out: DEL19-T790M GI50.

T5 sequence (P00533 with tags, fused parts or gaps DEL746-750/T790M/C797S limits assumed): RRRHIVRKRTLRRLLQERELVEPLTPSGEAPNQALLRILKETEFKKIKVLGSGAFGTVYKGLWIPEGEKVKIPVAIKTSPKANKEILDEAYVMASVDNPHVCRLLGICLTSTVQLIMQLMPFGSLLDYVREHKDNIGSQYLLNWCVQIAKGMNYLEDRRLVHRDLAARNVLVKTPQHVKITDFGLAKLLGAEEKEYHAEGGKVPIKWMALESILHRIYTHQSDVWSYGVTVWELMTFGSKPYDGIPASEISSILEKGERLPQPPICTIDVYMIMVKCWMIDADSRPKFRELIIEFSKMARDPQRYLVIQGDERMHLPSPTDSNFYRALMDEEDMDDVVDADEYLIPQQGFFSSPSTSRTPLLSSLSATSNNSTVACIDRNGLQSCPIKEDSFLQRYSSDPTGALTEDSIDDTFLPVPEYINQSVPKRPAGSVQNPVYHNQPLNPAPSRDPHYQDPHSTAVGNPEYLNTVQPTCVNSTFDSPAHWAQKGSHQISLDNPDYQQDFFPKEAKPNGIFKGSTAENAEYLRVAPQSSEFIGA
T1 sequence (P00533 25-1210 C797S/L858R): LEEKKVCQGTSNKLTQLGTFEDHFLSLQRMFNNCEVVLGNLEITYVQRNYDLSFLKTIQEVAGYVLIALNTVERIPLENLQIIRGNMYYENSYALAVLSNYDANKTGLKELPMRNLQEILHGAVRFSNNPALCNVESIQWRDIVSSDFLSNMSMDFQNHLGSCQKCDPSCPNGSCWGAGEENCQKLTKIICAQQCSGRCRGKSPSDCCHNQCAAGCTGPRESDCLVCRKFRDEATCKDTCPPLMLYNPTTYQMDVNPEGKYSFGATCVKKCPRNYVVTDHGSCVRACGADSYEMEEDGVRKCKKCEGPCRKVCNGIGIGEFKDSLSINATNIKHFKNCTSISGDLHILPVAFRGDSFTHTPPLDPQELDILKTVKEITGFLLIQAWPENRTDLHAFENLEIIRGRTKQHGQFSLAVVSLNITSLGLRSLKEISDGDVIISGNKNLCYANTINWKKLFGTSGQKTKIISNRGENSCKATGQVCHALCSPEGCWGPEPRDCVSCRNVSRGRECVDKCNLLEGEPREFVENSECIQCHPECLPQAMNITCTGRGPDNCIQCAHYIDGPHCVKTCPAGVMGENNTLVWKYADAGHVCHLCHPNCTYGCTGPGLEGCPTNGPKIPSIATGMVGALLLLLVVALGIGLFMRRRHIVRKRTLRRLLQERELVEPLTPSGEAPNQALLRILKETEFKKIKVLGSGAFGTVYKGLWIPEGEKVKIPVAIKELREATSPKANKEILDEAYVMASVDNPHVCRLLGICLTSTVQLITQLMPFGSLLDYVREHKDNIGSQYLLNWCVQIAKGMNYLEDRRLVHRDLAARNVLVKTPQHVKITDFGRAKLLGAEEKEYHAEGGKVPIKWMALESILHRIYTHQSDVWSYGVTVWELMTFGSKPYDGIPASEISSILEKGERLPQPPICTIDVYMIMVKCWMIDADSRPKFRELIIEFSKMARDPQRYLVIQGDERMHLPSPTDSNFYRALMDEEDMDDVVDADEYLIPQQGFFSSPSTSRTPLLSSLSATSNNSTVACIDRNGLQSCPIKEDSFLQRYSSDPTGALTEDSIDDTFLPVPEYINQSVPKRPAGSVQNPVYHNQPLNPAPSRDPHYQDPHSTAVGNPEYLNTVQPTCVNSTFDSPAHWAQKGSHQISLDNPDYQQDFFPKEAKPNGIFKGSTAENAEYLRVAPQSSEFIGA

As to `C[C@@H]1CCCOc2c(cnn2C)-c2cc(cn(C)c2=O)C(=O)Nc2nc3ccc(N4CCN(C)CC4)cc3n2C1` [Example A25, (11R)-5,11,26-trimethyl-16-(4-methylpiperazin-1-yl)-7-oxa-4,5,13,20,22,26-hexaazapentacyclo[22.3.1.0^{2,6}.0^{13,21}.0^{14,19}]octacosa-1(28),2(6),3,14,16,18,20,24-octaene-23,27-dione], the IC50 (as a rule, the point on the concentration scale where inhibition reaches its midpoint) on EGFR (C797S L858R) amounted to 6 nM; at EGFR L858R, 24 nM; on EGFR wild type, 323 nM; on EGFR Exon19Del, 0.0016 µM; in assay [1], 1.6 nM; at EGFR L858R/T790M it was 2 nM. The IC50 on EGFR Exon19Del/T790M amounted to 1.6 nM; on EGFR[T790M/C797S/L858R] it was 1.6 nM; at EGFR (d746-750 C797S) it was 1 nM. Moreover, the GI50 was 0.012 µM with PC-9; 0.486 µM in the assay with A-431; 0.0014 µM in assay [2] (setting [3]); 0.013 µM in assay [2] (setting [4]); 0.0024 µM in assay [2] (setting [5]); 0.0093 µM in assay [2] (setting [6]). In addition, the GI50 in assay [2] (setting [7]) turned out to be 0.0056 µM; in assay [2] (setting [8]) it was 0.016 µM; in assay [2] (setting [9]) it was 0.0092 µM.

As for `C[C@@H]1CCCOc2c(cnn2C)-c2cc(cn(C)c2=O)C(=O)Nc2nc3ccc(N4CCOCC4)cc3n2C1` [Example A26, (11R) 5,11,26-trimethyl-16-(morpholin-4-yl)-7-oxa-4,5,13,20,22,26-hexaazapentacyclo[22.3.1.0^{2,6}.0^{13,21}.0^{14,19}]octacosa-1(28),2(6),3,14,16,18,20,24-octaene-23,27-dione], the IC50 at EGFR (C797S L858R) is 33 nM; on EGFR L858R it was 68 nM; at EGFR wild type it was 1090 nM; on EGFR Exon19Del, 0.008 µM; in assay [1], 5.6 nM; on EGFR L858R/T790M, 19 nM. Besides, the half-inhibitory concentration (IC50) on EGFR Exon19Del/T790M turned out to be 5 nM; on EGFR[T790M/C797S/L858R] it was 16 nM; on EGFR (d746-750 C797S), 2.9 nM. The GI50 is 0.018 µM in the assay with PC-9; 0.405 µM in the assay with A-431; 0.0021 µM in assay [2] (setting [3]); 0.016 µM in assay [2] (setting [4]); 0.018 µM in assay [2] (setting [5]); 0.0046 µM in assay [2] (setting [6]). Also, the GI50 in [2] (setting [7]) is 0.012 µM; in [2] (setting [8]) it was 0.028 µM; in [2] (setting [9]), 0.018 µM.

Take `C[C@@H]1CCCOc2c(cnn2C)-c2cc(cn(C)c2=O)C(=O)Nc2nc3ccc(N4CCC(N(C)C)C4)cc3n2C1` (stereo partly drawn) [Example A27, (11R)-16-[3-(Dimethylamino)pyrrolidin-1-yl]-5,11,26-trimethyl-7-oxa-4,5,13,20,22,26-hexaazapentacyclo[22.3.1.0^{2,6}.0^{13,21}.0^{14,19}]octacosa-1(28),2(6),3,14,16,18,20,24-octaene-23,27-dione]: the half-maximal inhibitory concentration (IC50) at EGFR (C797S L858R) was 21 nM; on EGFR L858R, 25 nM; on EGFR wild type, 290 nM; at EGFR Exon19Del, 0.0061 µM; in [1], 13 nM; on EGFR L858R/T790M, 26 nM. In addition, the IC50 at EGFR Exon19Del/T790M stood at 15 nM; at EGFR[T790M/C797S/L858R] it was 20 nM; on EGFR (d746-750 C797S), 5.5 nM. Besides, the GI50 in the assay on PC-9 is 0.021 µM; in the assay with A-431 it was 0.453 µM; in assay [2] (setting [3]) it was 0.0012 µM; in [2] (setting [4]), 0.0019 µM; in [2] (setting [5]), 0.003 µM; in [2] (setting [6]) it was 0.0071 µM. In addition, the GI50 stood at 0.0022 µM in assay [2] (setting [7]), 0.0068 µM in [2] (setting [8]) and 0.0035 µM in assay [2] (setting [9]).

For the origin of these results see patent US20260365670A1, “EGFR INHIBITORS AND USES THEREOF” (DIZAL (JIANGSU) PHARMACEUTICAL CO., LTD., priority 2022, published 2026).
